Columns and labels:
Type in all cases: in vivo
Tetranychus urticae = test: Tetranychus test (TETRUR spray treatment; OP-resistant in Example 10); conditions: for effect in % (spider mites killed): after 5 days, bean leaf discs
Experimental: Tetranychus Test (TETRUR Spray Treatment)
To produce a suitable preparation of active compound, 1 part by weight of active compound is mixed with the stated amount of solvent and emulsifier, and the concentrate is diluted with emulsifier-containing water to the desired concentration. Discs of bean leaves (Phaseolus vulgaris) which are infested by all stages of the greenhouse red spider mite (Tetranychus urticae) are sprayed with an active compound preparation of the desired concentration.
After 5 days, the effect in % is determined. 100% means that all of the spider mites have been killed; 0% means that none of the spider mites have been killed.
Tetranychus Test, OP-Resistant (TETRUR Spray Treatment)
To produce a suitable preparation of active compound, 1 part by weight of active compound is mixed with the stated amount of solvent and emulsifier, and the concentrate is diluted with emulsifier-containing water to the desired concentration.
Discs of bean leaves (Phaseolus vulgaris) which are infested by all stages of the greenhouse red spider mite (Tetranychus urticae) are sprayed with an active compound preparation of the desired concentration.
After the desired period of time, the activity in % is determined. 100% means that all of the spider mites have been killed; 0% means that none of the spider mites have been killed.

Myzus persicae = test: Myzus test (MYZUPE spray treatment); conditions: for effect in % (aphids killed): application rate 500 g/ha, after 5 days, Chinese cabbage leaf discs
Experimental: Myzus Test (MYZUPE Spray Treatment) [table] To produce a suitable preparation of active compound, 1 part by weight of active compound is mixed with the stated amount of solvent and emulsifier, and the concentrate is diluted with emulsifier-containing water to the desired concentration. Discs of Chinese cabbage (Brassica pekinensis) infected by all stages of the green peach aphid (Myzus persicae) are sprayed with an active compound preparation of the desired concentration. After 5 days, the effect in % is determined 100% means that all of the aphids have been killed; 0% means that none of the aphids have been killed. Myzus Test (MYZUPE Spray Treatment) To produce a suitable preparation of active compound, 1 part by weight of active compound is mixed with the stated amount of solvent and emulsifier, and the concentrate is diluted with emulsifier-containing water to the desired concentration. Discs of Chinese cabbage (Brassica pekinensis) infected by all stages of the green peach aphid (Myzus persicae) are sprayed with an active compound preparation of the desired concentration. After the desired period of time, the activity in % is determined. 100% means that all of the aphids have been killed; 0% means that none of the aphids have been killed.

Echinocloa crus-galli = test: Herbicidal post-emergence action, ECHCG
Experimental: (§1) 2. Herbicidal Post-Emergence Action
(§2) • Seeds of monocotyledonous and dicotyledonous weed and crop plants are placed in sandy loam in wood-fiber pots, covered with soil and cultivated in a greenhouse under good growth conditions. 2 to 3 weeks after sowing, the test plants are treated at the one-leaf stage. The test compounds, formulated as wettable powders (WP), are then, with a water application rate of 600 l/ha (converted), with 0.2% of wetting agent added, sprayed at various dosages onto the green parts of the plants. After the test plants have been kept in the greenhouse under optimum growth conditions for about 3 weeks, the activity of the preparations is rated visually in comparison to untreated controls (herbicidal activity in percent: 100% activity=the plants have died, 0% activity=like control plants). • In addition to the compounds mentioned above, the following compounds show an activity of 90-100% against Alopecurus myosuroides, Avena fatua, Digitaria sanguinalis, Echinocloa crus-galli, Lolium multiflorum, Setaria viridis and Sorghum halapense when applied by the post-emergence method at 320 g/ha: I-a-2, I-a-4, I-a-5, I-a-7, I-a-9, I-a-10, I-a-11, I-a-12, I-a-13, I-a-15. • In addition to the compounds mentioned above, the following compounds show an activity of 90-100% against Alopecurus myosuroides, Avena fatua, Echinocloa crus-galli, Lolium multiflorum and Setaria viridis when applied by the post-emergence method at 80 g/ha: I-a-1, I-b-2.
(§3) • Seeds of monocotyledonous and dicotyledonous weed plants and crop plants are placed in wood-fiber pots in sandy loam and covered with soil. The test compounds, formulated in the form of wettable powders (WP) or emulsion concentrates (EC), are then, as an aqueous suspension with a water application rate of 600-800 l/ha (converted), with 0.1-0.2% of wetting agent added, applied at various dosages to the surface of the covering soil. • After the treatment, the pots are placed in a greenhouse and kept under good growth conditions for the test plants. […] Herbicidal Post-Emergence Action (Post) • Seeds of monocotyledonous and dicotyledonous weed and crop plants are placed in sandy loam in wood-fiber pots, covered with soil and cultivated in a greenhouse under good growth conditions. 2-3 weeks (stages 10-13 according to the BBCH scale) after sowing, the test plants are treated at a height of 5-10 cm. The test compounds, formulated as wettable powders (WP) or emulsion concentrates (EC), are then, with a water application rate of 600-800 l/ha (converted), with 0.1-0.2% of wetting agent added, sprayed at various dosages onto the green parts of the plants.
(§4) AVEFA: Avena fatua LOLMU: Lolium multiflorum SETVI: Setaria viridis CHEAL: Chenopodium album VIOTR: Viola tricolor VERPE: Veronica persica ORYSA: Oryza sativa TRZAS: Triticum aestivum ZEAMX: Zea mays ALOMY: Alopecurus myosuroides DIGSA: Digitaria sanguinalis ECHCG: Echinocloa crus-galli SORHA: Sorghum halepense AVESA: Avena sativa AMARE: Amaranthus retroflexus SINAL: Sinapis alba STEME: Stellaria media

Triticum aestivum = test: Herbicidal post-emergence action, TRZAS
Text: as §3, §4

Boophilus microplus = Boophilus microplus test (BOOPMI injection); conditions: 20 μg/animal, after 7 days
Experimental: Boophilus Microplus Test (BOOPMI Injection) [table] To prepare an appropriate active compound formulation, 10 mg of active compound are mixed with 0.5 ml of solvent and the concentrate is diluted with solvent to the desired concentration. The solution of active compound is injected into the abdomen (Boophilus microplus), and the animals are transferred into dishes and kept in a climatized room. The activity is assessed by deposition of fertile eggs. After 7 days, the effect in % is determined. 100% means that none of the ticks has laid any fertile eggs.

Phaedon cochleariae = test: Phaedon test (PHAECO spray treatment); conditions: for effect in % (beetle larvae killed): application rate 500 g/ha, after 7 days, Chinese cabbage leaf discs; for inhibition at 100 g/ha: Phaedon cochleariae, 168 h, 7dat
Experimental: Phaedon Test ([…] Spray Treatment) [table] To produce a suitable preparation of active compound, 1 part by weight of active compound is mixed with the stated amount of solvent and emulsifier, and the concentrate is diluted with emulsifier-containing water to the desired concentration. Discs of Chinese cabbage (Brassica pekinensis) are sprayed with an active compound preparation of the desired concentration and, after drying, populated with larvae of the mustard beetle (Phaedon cochleariae). After 7 days, the effect in % is determined 100% means that all beetle larvae have been killed; 0% means that none of the beetle larvae have been killed. Phaedon Test ([…] Spray Treatment) To produce a suitable preparation of active compound, 1 part by weight of active compound is mixed with the stated amount of solvent and emulsifier, and the concentrate is diluted with emulsifier-containing water to the desired concentration. Discs of Chinese cabbage (Brassica pekinensis) are sprayed with an active compound preparation of the desired concentration and, after drying, populated with larvae of the mustard beetle (Phaedon cochleariae). After the desired period of time, the activity in % is determined. 100% means that all beetle larvae have been killed; 0% means that none of the beetle larvae have been killed.

Digitaria sanguinalis = test: Herbicidal post-emergence action, DIGSA; conditions: 80 g/ha
Experimental: as §1, §2, §3, §4

Lolium multiflorum = test: Herbicidal post-emergence action, LOLMU
Experimental: as §1, §2, §3, §4

Oryza sativa = test: Herbicidal post-emergence action, ORYSA
Text: as §3, §4

Avena fatua = test: Herbicidal post-emergence action, AVEFA
Experimental: as §1, §2, §3, §4

Zea mays = test: Herbicidal post-emergence action, ZEAMX
Text: as §3, §4

Setaria viridis = test: Herbicidal post-emergence action, SETVI; conditions: 80 g/ha
Experimental: as §1, §2, §3, §4

Sorghum halepense = test: Herbicidal post-emergence action, SORHA; conditions: for % Activity SORHA: 80 g/ha
Experimental: as §1, §2, §3, §4

Alopecurus myosuroides = test: Herbicidal post-emergence action, ALOMY
Experimental: as §1, §2, §3, §4

## CCC(C)(C)C(=O)OC1=C(c2cc(C)ccc2C)C(=O)N[C@]12CC[C@@H](OC)CC2
Tetranychus urticae; Tetranychus urticae, 120 h, 500 g/ha, 5dat, OP-resistant
  inhibition at 500 g/ha: 0%
Myzus persicae; Myzus persicae, 120 h, 20 g/ha, 5dat
  inhibition at 20 g/ha: 0%

## CCc1cc(Br)cc(C)c1C1=C(OC(=O)C(C)(C)C)NC2(CCC(OC)CC2)C1=O (centres unmarked) [I-a-5]
Echinocloa crus-galli; 20 g/ha
  % Activity ECHCG: 80%

## CCc1cc(Br)cc(Cl)c1C1=C(OC(=O)C(C)(C)C)NC2(CCCCC2)C1=O [I-a-14]
Triticum aestivum; 80 g/ha
  % Activity TRZAS: 90%
Boophilus microplus
  efficacy in % (deposition of fertile eggs): 80%
Tetranychus urticae; application rate 500 g/ha
  effect in % (spider mites killed): 90%
Phaedon cochleariae
  effect in % (beetle larvae killed): 100%
Digitaria sanguinalis
  % Activity DIGSA: 100%
Lolium multiflorum; 80 g/ha
  % Activity LOLMU: 100%
Oryza sativa; 80 g/ha
  % Activity ORYSA: 80%
Avena fatua; 80 g/ha
  % Activity AVEFA: 100%
Myzus persicae
  effect in % (aphids killed): 90%
Zea mays; 80 g/ha
  % Activity ZEAMX: 100%
Echinocloa crus-galli; 80 g/ha
  % Activity ECHCG: 100%
Setaria viridis
  % Activity SETVI: 100%
Sorghum halepense
  % Activity SORHA: 100%
Sorghum halepense; second SORHA column
  % Activity SORHA: 90%
Alopecurus myosuroides; 80 g/ha
  % Activity ALOMY: 80%

## CCc1cc(Cl)cc(OC)c1C1=C(OC(=O)C(C)C)C2(CCCCC2)NC1=O
Triticum aestivum; concentration 80 g/ha 20 g/ha, first TRZAS column
  % Activity TRZAS: 0%
Triticum aestivum; concentration 80 g/ha 20 g/ha, second TRZAS column
  % Activity TRZAS: 0%
Lolium multiflorum; concentration 80 g/ha 20 g/ha
  % Activity LOLMU: 50%
Oryza sativa; concentration 80 g/ha 20 g/ha
  % Activity ORYSA: 0%
Avena fatua; concentration 80 g/ha 20 g/ha
  % Activity AVEFA: 20%
Zea mays; concentration 80 g/ha 20 g/ha
  % Activity ZEAMX: 20%
Alopecurus myosuroides; concentration 80 g/ha 20 g/ha
  % Activity ALOMY: 40%

## CCc1cc(Br)cc(C)c1C1=C(OC(=O)C(C)(C)C)C2(CCC(OC)CC2)NC1=O (centres unmarked) [I-b-2 known from WO 05/006125]
Echinocloa crus-galli; Echinochloa crus-galli, post-emergence, 20 g/ha
  inhibition at 20 g/ha: 50%

## CCOC(=O)OC1=C(c2cc(C)c(Cl)cc2C)C(=O)C2(CCC(COC)CC2)N1 (centres unmarked) [I-b-4]
Myzus persicae
  effect in % (aphids killed): 90%

## CCOC(=O)OC1=C(c2cc(C)ccc2C)C(=O)N[C@@]12CCC[C@@H](COC)C2 [I-1-c-2 known from WO 07/048545]
Phaedon cochleariae
  inhibition at 100 g/ha: 50%
Myzus persicae; Myzus persicae, 120 h, 5dat
  inhibition at 4 g/ha: 0%

## CCOC(=O)OC1=C(c2c(CC)cc(C)cc2C2CC2)C(=O)C(C)(C)N1 [I-b-5]
Myzus persicae
  effect in % (aphids killed): 100%

## CCc1cc(Br)cc(Cl)c1C1=C(OC(=O)C(C)(C)C)C2(CCCCC2)NC1=O [I-b-41 known from WO 04/065366]
Triticum aestivum; Triticum aestivum, post-emergence, 80 g/ha
  inhibition at 80 g/ha: 0%
Digitaria sanguinalis; Digitaria sanguinalis, post-emergence
  inhibition at 80 g/ha: 0%
Lolium multiflorum; Lolium multiflorum, post-emergence, 80 g/ha
  inhibition at 80 g/ha: 0%
Oryza sativa; Oryza sativa, post-emergence, 80 g/ha
  inhibition at 80 g/ha: 0%
Avena fatua; Avena fatua, post-emergence, 80 g/ha
  inhibition at 80 g/ha: 0%
Zea mays; Zea mays, post-emergence, 80 g/ha
  inhibition at 80 g/ha: 0%
Echinocloa crus-galli; Echinochloa crus-galli, post-emergence, 80 g/ha
  inhibition at 80 g/ha: 80%
Setaria viridis; Setaria viridis, post-emergence
  inhibition at 80 g/ha: 0%
Sorghum halepense; Sorghum halepense, post-emergence
  inhibition at 80 g/ha: 0%
Alopecurus myosuroides; Alopecurus myosuroides, post-emergence, 80 g/ha
  inhibition at 80 g/ha: 0%

## CCc1cc(C)cc(Br)c1C1=C(OC(=O)C(C)C)NC(C)(C)C1=O [Example I-a-1]
Phaedon cochleariae
  effect in % (beetle larvae killed): 83%
Myzus persicae
  effect in % (aphids killed): 90%

## CCCc1cc(Br)cc(Br)c1C1=C(OC(=O)C(C)(C)C)NC(C)(C)C1=O [I-a-11]
Phaedon cochleariae
  effect in % (beetle larvae killed): 83%

## CCOC(=O)OC1=C(c2cc(C)ccc2C)C(=O)[C@@]2(CCC[C@H](COC)C2)N1 [I-b-1]
Boophilus microplus
  efficacy in % (deposition of fertile eggs): 95%
Tetranychus urticae; application rate 100 g/ha
  effect in % (spider mites killed): 100%
Phaedon cochleariae
  inhibition at 100 g/ha: 100%
  effect in % (beetle larvae killed): 100%
Myzus persicae; Myzus persicae, 120 h, 5dat
  inhibition at 4 g/ha: 90%
Myzus persicae
  effect in % (aphids killed): 100%

## CCC(C)(C)C(=O)OC1=C(c2cc(C)ccc2C)C(=O)C2(CCC(OC)CC2)N1 (centres unmarked) [I-a-16]
Tetranychus urticae; 500 g/ha, 5dat, OP-resistant
  % Activity TETRUR: 90%
Tetranychus urticae; application rate 500 g/ha
  effect in % (spider mites killed): 90%
Myzus persicae; 20 g/ha, 5dat
  % Activity MYZUPE: 100%
Myzus persicae
  effect in % (aphids killed): 100%
